Consider seven compounds from ChEMBL document CHEMBL1201862, “PubChem BioAssay data set” (2004).

Holding throughout (assay): NCI anticancer screen, dose series, 48 h
In assay [1] the test system is SK-OV-3.
For assay [2], the system named is SN12C.
Assay [3] relates to UO-31.
For assay [4], the system named is BT-549.
The test system of assay [5] is A549.
The test system of assay [6] is KM12.
For assay [7], the system named is COLO 205.
The test system of assay [8] is SW-620.
The test system of assay [9] is HOP-62.
For assay [10], the system named is U-251.
Assay [11] concerns MCF7.
Assay [12] has as its system M14.
The test system of assay [13] is HCT-116.
In assay [14] the test system is SR.
For assay [15], the system named is MOLT-4.
The subject of assay [16] is UACC-257.
Assay [17] relates to IGROV-1.
Assay [18] concerns ACHN.
Assay [19] deals with T47D.
The test system of assay [20] is HOP-92.

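Results reflect a 48-hour exposure of cells in 96-well plates to compound at five concentrations. Abbreviation: GI50, concentration required for 50% inhibition of growth.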 The source made the active and inactive calls. Rule as the data show it: active = GI50 up to about 1.1 µM and inactive = higher.

As to `COc1cc(O)c(C(=O)/C=C/c2ccc(O)cc2)cc1Oc1ccc(C(=O)/C=C/c2ccc(O)cc2)c(O)c1` [RHUSCHALCONE IV], the GI50 in assay [1] is 2.88 µM (inactive); in [2], 2.45 µM (inactive); in [3] it was 2.56 µM (inactive); in assay [4] it was 2.92 µM (inactive); in [5], 2.96 µM (inactive); in assay [6] it was 1.44 µM (inactive). Also, the GI50 in assay [7] is 1.88 µM (inactive); in [8], 3.36 µM (inactive); in assay [9] it was 4.47 µM (inactive); in assay [10], 1.93 µM (inactive); in assay [11] it was 2.69 µM (inactive); in assay [12], 3.9 µM (inactive). The GI50 in assay [13] is 1.8 µM (inactive); in assay [14], 2.38 µM (inactive); in assay [15] it was 3.13 µM (inactive); in [16], 6.19 µM (inactive); in [17] it was 1.67 µM (inactive); in [18], 2.4 µM (inactive). The values for the GI50 in [19] and in assay [20] were 2.29 µM (inactive) and 4.36 µM (inactive), respectively.

As for `O=C(O)C(Cl)(c1ccccc1)c1ccccc1`, the GI50 in [1], in [2], in assay [3], in [4], in assay [5] and in assay [6] was > 100 µM (inactive) in each case. Besides, the GI50 in assay [7], in assay [8], in [9], in assay [10], in assay [11] and in assay [12] was > 100 µM (inactive) throughout. Further, the GI50 in [13], in [14], in [15], in [16], in [17] and in assay [18] was > 100 µM (inactive) in each case. Besides, the GI50 in assay [19] and in assay [20] was > 100 µM (inactive) each time.

On to `COC(=O)C1C(OC(=O)c2ccccc2)CC2CCC1N2C(N)=O` (stereo not given), for which the GI50 in assay [1], in assay [2], in assay [3], in [4], in assay [5] and in [6] was > 100 µM (inactive) in each case. In addition, the GI50 in [7], in assay [8], in assay [9], in assay [10], in assay [11] and in [12] was > 100 µM (inactive) each time. Also, the GI50 in assay [13], in assay [14], in assay [15], in assay [16], in assay [17] and in [18] was > 100 µM (inactive) throughout. Also, the GI50 in [19] and in assay [20] was > 100 µM (inactive) in each case.

Turning to `O=C1N[C@@H]2c3c(csc3Br)C(=O)[C@@H]2O1`, the GI50 is 90.4 µM (inactive) in assay [1]; 42.5 µM (inactive) in [2]; 20.9 µM (inactive) in [3]; 38.5 µM (inactive) in [4]; 51.9 µM (inactive) in assay [5]; 47 µM (inactive) in assay [6]. Also, the GI50 in [7] was 35 µM (inactive); in [8], 20.2 µM (inactive); in [9], 53.2 µM (inactive); in assay [10], 24.2 µM (inactive); in [11], 32.6 µM (inactive); in assay [12] it was 37.3 µM (inactive). The GI50 was 27.8 µM (inactive) in [13]; 26.1 µM (inactive) in assay [14]; 19.9 µM (inactive) in assay [15]; 22.4 µM (inactive) in [16]; 26.5 µM (inactive) in assay [17]; 37.2 µM (inactive) in assay [18]. Moreover, the results for the GI50 in [19] and in assay [20] were 28.8 µM (inactive) and 20.8 µM (inactive), respectively.

As to `CCOC(=O)c1c(Nc2ccccc2)sc2cccnc12`, the GI50 was 36 µM (inactive) in [1]; 9.18 µM (inactive) in assay [2]; 1.94 µM (inactive) in assay [3]; 18.7 µM (inactive) in assay [4]; 3.24 µM (inactive) in [5]; 18.9 µM (inactive) in assay [6]. Further, the GI50 was 0.853 µM (active) in assay [7]; 24 µM (inactive) in assay [8]; 35.5 µM (inactive) in [9]; 2.43 µM (inactive) in assay [10]; 7.76 µM (inactive) in assay [11]; 4.49 µM (inactive) in [12]. Also, the GI50 was 5.92 µM (inactive) in assay [13]; 9.44 µM (inactive) in [14]; 15.6 µM (inactive) in [15]; 5.35 µM (inactive) in assay [16]; 23 µM (inactive) in assay [17]; 14.2 µM (inactive) in [18]. The values for the GI50 in assay [19] and in assay [20] were 28 µM (inactive) and 1.9 µM (inactive), respectively.

In the case of `Cc1cc(S(=O)(=O)n2ccnc2Oc2cccc(Cl)c2)c(SSc2cc(Cl)c(C)cc2S(=O)(=O)n2ccnc2Oc2cccc(Cl)c2)cc1Cl`, the GI50 in assay [1] was 12.4 µM (inactive); in [2] it was 8.87 µM (inactive); in [3], 5.96 µM (inactive); in assay [4], 4.3 µM (inactive); in [5], 7.06 µM (inactive); in assay [6] it was 5.66 µM (inactive). Also, the GI50 in [7] is 2.57 µM (inactive); in assay [8] it was 11.7 µM (inactive); in [9], 9.57 µM (inactive); in assay [10], 3.18 µM (inactive); in [11], 3.21 µM (inactive); in [12] it was 7.89 µM (inactive). For the same compound, the GI50 in assay [13] was 6.19 µM (inactive); in assay [14], 9.06 µM (inactive); in [15], 4.14 µM (inactive); in assay [16], 8.09 µM (inactive); in [17] it was 8.13 µM (inactive); in assay [18], 8.36 µM (inactive). Besides, the results for the GI50 in assay [19] and in [20] were 2.98 µM (inactive) and 4.39 µM (inactive), respectively.

For `CCN1CCN(c2ccc(Nc3ccnc4ccc5c(nnn5C)c34)cc2)CC1`, the GI50 in assay [1] was 11.4 µM (inactive); in assay [2], 3.53 µM (inactive); in assay [3] it was 10.2 µM (inactive); in [4] it was 17.3 µM (inactive); in [5], 7.83 µM (inactive); in assay [6] it was 3.51 µM (inactive). Also, the GI50 in assay [7] was 2.78 µM (inactive); in assay [8], 3.93 µM (inactive); in [9] it was 5.05 µM (inactive); in [10], 5.69 µM (inactive); in assay [11], 4.44 µM (inactive); in assay [12], 10.7 µM (inactive). For the same compound, the GI50 is 3.44 µM (inactive) in assay [13]; 2.51 µM (inactive) in assay [14]; 4.45 µM (inactive) in assay [15]; 13.2 µM (inactive) in [16]; 12.9 µM (inactive) in assay [17]; 2.99 µM (inactive) in assay [18]. Moreover, the GI50 in [19] is 16 µM (inactive); in [20] it was 4.8 µM (inactive).
